Measured values reported in patent US20090221624A1, “4-AMINOQUINOLINE COMPOUNDS FOR TREATING VIRUS-RELATED CONDITIONS” (priority 2005, published 2009).

Key:
[1] = test system: EBOV minigenome; assay: microbe, parasite or virus in culture; type: cell-based, Ebola virus; conditions: Zaire ebolavirus; for inhibition at 25 µM: 24 h, read-out: EBOV Inh; for EC50: read-out: EBOV EC50
[2] = test system: DNG (D2-hRuPac cells); assay: DNG antiviral activity, D2-hRuPac cells, Renilla luciferase; type: cell-based, Dengue fever virus; conditions: Dengue virus, secondary screening
[3] = test system: SINV (SR19-F-luc cells); assay: SINV antiviral activity, SR19-F-luc cells, Firefly luciferase; type: cell-based; conditions: Sindbis virus; for inhibition at 25 µM: primary screening, 25 μM final concentration, 24 hours, percent inhibition of viral replication, read-out: SINV Inh; for EC50: secondary screening, SR19-F-luc cells
[4] = test system: WNV (WN-hRuPac cells); assay: WNV antiviral activity, WN-hRuPac cells, Renilla luciferase; type: cell-based, West Nile virus; conditions: for EC50 / inhibition at 25 µM: West Nile virus; for EC50: Secondary Data, WNV, read-out: WNV EC50; for inhibition at 25 µM: primary screening, 25 μM final concentration, 24 hours, percent inhibition of viral replication, read-out: WNV Inh; for WNV TI: therapeutic index CC50/EC50, WNV
[5] = test system: YFV (YF-hRuPac cells); assay: microbe, parasite or virus in culture; type: cell-based, yellow fever virus; conditions: for inhibition at 25 µM / EC50: Yellow fever virus; for inhibition at 25 µM: 24 h, read-out: YFV Inh; for EC50: read-out: YFV EC50
[6] = test system: HCV replicon (Clone A cells, Huh7, subgenomic hepatits C virus RNA); assay: HCV Neo screening assay (HCV replicon, NPTII ELISA); type: cell-based, hepatitis C virus; conditions: for EC50 / inhibition at 25 µM: Hepatitis C virus, Huh-7; for EC50: Secondary Data, HCV; for inhibition at 25 µM: primary screening, 25 μM final concentration, 24 hours, percent inhibition of viral replication, read-out: HCV Inh; for HCV TI: therapeutic index CC50/EC50, HCV
[7] = test system: RSV minigenome; assay: RSV minigenome-dependent β-galactosidase expression assay (RSV β-Gal); type: cell-based, respiratory syncytial virus; conditions: for EC50 / inhibition at 25 µM: human respiratory syncytial virus; for EC50: Secondary Data, RSV, read-out: RSV EC50; for inhibition at 25 µM: primary screening, 25 μM final concentration, 24 hours, percent inhibition of viral replication, read-out: RSV Inh; for RSV TI: therapeutic index CC50/EC50, RSV
[8] = in vitro

| SMILES | inhibition at 25 µM [1] | EC50 [1] | EC50 [2] | inhibition at 25 µM [3] | EC50 [3] | inhibition at 25 µM [4] | YFV TI [5] | inhibition at 25 µM [5] | EC50 [5] | inhibition at 25 µM [6] | EC50 [7] | inhibition at 25 µM [7] | RSV TI [7] | CC50 ([8]; DNG CC50) | CC50 ([8]; EBOV CC50) | CC50 ([8]; HCV CC50) | CC50 ([8]; RSV CC50) | CC50 ([8]; SINV CC50) | CC50 ([8]; WNV CC50) | CC50 ([8]; YFV CC50) | other results |
| --- | --- | --- | --- | --- | --- | --- | --- | --- | --- | --- | --- | --- | --- | --- | --- | --- | --- | --- | --- | --- | --- |
| Cc1ccc(Nc2cc(C)nc3c2ccc2ccccc23)cc1 [Compound 9] | -17.1% | 61.5 µM | ≥ 75 µM | 48.2% | ≥ 75 µM | 33.4% | 13.51 | 76.2% | 5.4 µM | 98.3% | 4.1 µM | 88.2% | 17.8 | 73 µM | 73 µM | 9.83 µM | 73 µM | 73 µM | 73 µM | 73 µM | EC50 [4]: 30.6 µM; WNV TI [4]: 2.38; EC50 [6]: 1.77 µM; HCV TI [6]: 5.55 |
| CCOC(=O)c1cnc2c(ccc3ccccc32)c1NCc1ccco1 [Compound 37] | 15.7% | 75 µM | 25.5 µM | 10.3% | ≥ 75 µM | 87.8% | 15.12 | 94.4% | 2.75 µM | 72.9% | 1.38 µM | 58% | 30.12 | 41.6 µM | 41.6 µM | 56 µM | 41.6 µM | 41.6 µM | 41.6 µM | 41.6 µM | EC50 [4]: 4.08 µM; WNV TI [4]: 10.19; EC50 [6]: 13 µM; HCV TI [6]: 4.31 |
| CCOc1ccc2nc(C)cc(Nc3ccc(Br)cc3)c2c1 [Compound 41] | 95.2% | 75 µM | 7.91 µM | 97.2% | 2.96 µM | 100% | 7.97 | 96.5% | 3.61 µM | 117% | 2.04 µM | 99.4% | 14.11 | 28.8 µM | 28.8 µM | 3.01 µM | 28.8 µM | 28.8 µM | 28.8 µM | 28.8 µM | EC50 [4]: 7.4 µM; WNV TI [4]: 3.89; EC50 [6]: 4 µM; HCV TI [6]: 0.75 |
| CCOC(=O)c1ccc2ncc(C(=O)OCC)c(NCc3ccco3)c2c1 [Compound 13] | 59% | 6.03 µM | 10.5 µM | -12.1% | 44.5 µM | 98% | 3.98 | 89.5% | 8.88 µM | 27.4% | 2.93 µM | 92.1% | 12.07 | 35.4 µM | 35.4 µM | ≥ 75 µM | 35.4 µM | 35.4 µM | 35.4 µM | 35.4 µM | EC50 [4]: 4.78 µM; WNV TI [4]: 7.4 |
| Cc1cc(C)c2nc(C)cc(Nc3ccc(Cl)c(Cl)c3)c2c1 [Compound 53] | 75.6% | 75 µM | 28.7 µM | 88.1% | 6.69 µM | 91.9% | 7.6 | 79.9% | 6.47 µM | 150% | 3.78 µM | 100% | 13 | 49.1 µM | 49.1 µM | 8.3 µM | 49.1 µM | 49.1 µM | 49.1 µM | 49.1 µM | EC50 [4]: 20.9 µM; WNV TI [4]: 2.35; EC50 [6]: 4.78 µM; HCV TI [6]: 1.74 |
| COc1ccc(Nc2cc(C)nc3ccccc23)cc1 [Compound 20] | 21% | 50.1 µM | 42 µM | 75.5% | 4.28 µM | 38.4% | 2.83 | 51% | 26.5 µM | 14.8% | 8.52 µM | 61.4% | 8.8 | ≥ 75 µM | ≥ 75 µM | 64.2 µM | ≥ 75 µM | ≥ 75 µM | ≥ 75 µM | ≥ 75 µM | EC50 [4]: ≥ 75 µM |
| CCOC(=O)c1cnc2ccc(OCC)cc2c1NCc1ccco1 [Compound 36] | 15.5% | 75 µM | 16.5 µM | -58.8% | ≥ 75 µM | 93.7% | 6.98 | 94.4% | 6.78 µM | 135% | 1.46 µM | 100% | 32.4 | 47.3 µM | 47.3 µM | 21.3 µM | 47.3 µM | 47.3 µM | 47.3 µM | 47.3 µM | EC50 [4]: 2.38 µM; WNV TI [4]: 19.87; EC50 [6]: 6 µM; HCV TI [6]: 3.55 |
| CCOC(=O)c1cnc2ccc(C)cc2c1Nc1ccc(N2CCOCC2)cc1 [Compound 38] | -36.4% | 75 µM | ≥ 75 µM | 43.2% | ≥ 75 µM | 36.5% | 1.94 | 70.8% | 38.7 µM | 88.4% | 5.05 µM | 98.2% | 14.85 | ≥ 75 µM | ≥ 75 µM | 19 µM | ≥ 75 µM | ≥ 75 µM | ≥ 75 µM | ≥ 75 µM | EC50 [6]: 9.5 µM; HCV TI [6]: 2 |
